This note sets out measurements from ChEMBL document CHEMBL1144649, “2-cyanoaminopyrimidines as a class of antitumor agents that promote tubulin polymerization” (Bioorg Med Chem Lett, 2007).

Data set [1] relates to KB. The data set is described as follows: Ratio of IC50 for KB8.5 cells to IC50 for KB cells. It counts as functional, Homo sapiens.
Data set [2] can be described thus: Ratio of IC50 for KB V1 cells to IC50 for KB cells.
A short description of data set [3]: Antiproliferative activity against KB8.5 cells. The note with it: Homo sapiens. The data set is classed as functional, cell-based.
Data set [4] can be described thus: Antiproliferative activity against KBV1cells. The note with it: Homo sapiens, KB-V1. The data set is classed as functional, cell-based.
The subject of a further data set is COLO 205. The data set is described as follows: Cytotoxicity against COLO205 cells. It counts as functional, cell-based. Particulars: Homo sapiens.
Data set [5] can be described thus: Solubility in water at pH 7.4. The data set is classed as physicochemical.
Data set [6] in a line: Stability in nude mouse microsomes after 30 mins. The data set is classed as ADME, Microsome. The note with it: read-out: Stability.
For data set [7], the target named is T1, Tubulin (Homo sapiens) (UniProt P68371+Q9H4B7+P0DPH7+P68366+Q13509+Q71U36+P04350+Q3ZCM7+P07437+P68363+Q9BQE3+Q6PEY2+Q13885+Q9BVA1+Q9BUF5). Briefly: Stimulation of tubulin polymerization. It counts as protein-complex assay.
In data set [8] the test system is KB. The data set is described as follows: Antiproliferative activity against KB cells. It counts as functional, cell-based. The note with it: Homo sapiens.
Data set [9] addresses T1, Tubulin (Homo sapiens). Briefly: Stimulation of MAP-rich tubulin polymerization. The data set is classed as protein-complex assay.

Active and inactive are the calls of the source. The rule behind the calls is not given here. A value given as a limit tells only on which side of the number the result lay.

Broadly, the IC50 is the concentration that gives 50% inhibition. Read a low IC50 as higher potency. As for `CC[C@]1(O)C[C@H]2CN(CCc3c([nH]c4ccccc34)[C@@](C(=O)OC)(c3cc4c(cc3OC)N(C=O)[C@H]3[C@@](O)(C(=O)OC)[C@H](OC(C)=O)[C@]5(CC)C=CCN6CC[C@]43[C@@H]65)C2)C1` [VINCRISTINE], the “Ratio IC50” value with KB [1] is given as 26; in data set [2], 925. Besides, the IC50 is 0.058 µM in data set [3] and 2.04 µM in [4].
Compound `CN(C)CCCOc1cc(F)c(-c2c(Cl)nc(N(C)C#N)nc2NCC(F)(F)F)c(F)c1` displayed an IC50 in the data set with COLO 205 of 0.052 µM.
`CN(C)CCOc1cc(F)c(-c2c(Cl)nc(N(C)C#N)nc2NCC(F)(F)F)c(F)c1`: half-maximal inhibition with COLO 205 (IC50) was put at 0.532 µM.
In the data set with COLO 205, `CN(C#N)c1nc(Cl)c(-c2c(F)cc(F)cc2F)c(NCC(F)(F)F)n1` came in with an IC50 of 0.214 µM.
`CC(=O)O[C@H]1C(=O)[C@@]2(C)[C@H]([C@H](OC(=O)c3ccccc3)[C@]3(O)C[C@H](OC(=O)[C@H](O)[C@@H](NC(=O)c4ccccc4)c4ccccc4)C(C)=C1C3(C)C)[C@]1(OC(C)=O)CO[C@@H]1C[C@@H]2O` [PACLITAXEL] yielded an IC50 in data set [4] of 2.01 µM.
In the data set on COLO 205, `CCN(C#N)c1nc(Cl)c(-c2c(F)cc(F)cc2F)c(NCC(F)(F)F)n1` returned a 50% inhibitory concentration (IC50) of 0.304 µM.
`CNCCCOc1cc(F)c(-c2c(Cl)nc3ncnn3c2N[C@@H](C)C(F)(F)F)c(F)c1.Cl`: the “Ratio IC50” value in the data set with KB [1] was 2.9. Also, it took 0.067 µM to reach half-maximal inhibition in [3] (IC50).
The solubility is how much of the substance goes into solution per volume. A lower solubility goes with little dissolved substance. Turning to `C[C@H](Nc1nc(N(C)C#N)nc(Cl)c1-c1c(F)cc(OCCCN(C)C)cc1F)C(F)(F)F`, the IC50 in the data set with COLO 205 was 0.036 µM; in [3], 0.059 µM; in data set [4], 0.082 µM; with KB [8], 0.024 µM. The solubility in data set [5] was greater than 0.1 mg/mL. In addition, the remaining at 0.5 h in [6] came out at 92%. Besides, the result on Tubulin (Homo sapiens) [7] and at Tubulin (Homo sapiens) [9] was Active. The “Ratio IC50” value in the data set on KB [1] is 2.5; in data set [2] it was 3.5.
`C=CCN(C#N)c1nc(Cl)c(-c2c(F)cc(F)cc2F)c(NCC(F)(F)F)n1`: the IC50 in the data set with COLO 205 worked out at 0.477 µM.
Take `CN(C)CCCCOc1cc(F)c(-c2c(Cl)nc(N(C)C#N)nc2NCC(F)(F)F)c(F)c1`: half-maximal inhibition in the data set with COLO 205 (IC50) required 0.229 µM. This IC50 is about 2.1-fold lower than that of the compound before.
